In PMC12040169 (PLOS Biology, 2025):

experiment: in vitro; conditions: human, hela cells, % viability

| SMILES | viability at 28.5 h, 10 µM [%] |
| --- | --- |
| COC(=O)c1c(NC(=O)C(=O)NCc2ccccn2)sc2c1CCCC2 [CBK269505] | 95.2 |
| CC(=O)Cn1c(CN2CCOCC2)nc2c1c(=O)n(C)c(=O)n2C [CBK269508] | 97.5 |
| COc1ccc(S(=O)(=O)N2CCN(C)CC2)cn1 [CBK269511] | 85.9 |
| O=C(O)c1cc(-n2c(S)nnc2-c2ccc3ccccc3n2)ccc1Cl [CBK269512] | 86.1 |
| O=C(O)c1ccc(CSc2nc(-c3ccccc3)cc(C(F)(F)F)n2)o1 [CBK269514] | 105 |
| O=C(CCCc1nc(-c2ccccc2Cl)no1)NCc1cccnc1 [CBK269516] | 77.8 |
| CS(=O)(=O)N(Cc1cc2ccccc2nc1O)CC1CCCO1 (centres unmarked) [CBK269517] | 86.1 |
| COc1ccc2ncc(C(=O)O)c(Nc3ccccc3C)c2c1 [CBK269522C] | 104 |
| Cn1c(=O)c2c(nc(CN3CCN(Cc4ccccc4)CC3)n2CCc2ccccc2)n(C)c1=O [CBK269523] | 90.9 |
| Cc1ccc(S(=O)(=O)NC(=O)N(Cc2ccccc2)Cc2ccco2)cc1 [CBK269524] | 93 |
| CCOc1ccc(S(=O)(=O)NCc2ccncc2)cc1NC(C)=O [CBK269527] | 88 |
| CC1Cc2ccccc2N1C(=O)CSc1nnc(N)s1 (centres unmarked) [CBK269530] | 94.3 |
| CCn1c(SCC(=O)Nc2cc(C)ccc2F)nnc1-c1ccccc1O [CBK269532] | 91.4 |
| CCc1nnc2sc(-c3ccccc3Br)nn12 [CBK269533] | 67.4 |
| CC(=O)Nc1cccc(NC(=O)c2ccc(CN3CCc4ccccc4C3)cc2)c1 [CBK269534] | 92.2 |
| Cc1cccc(OCCn2c(CCNC=O)nc3ccccc32)c1C [CBK269539] | 104 |
| COC(=O)c1ccc(OCc2nnn[nH]2)cc1 [CBK269544] | 88.7 |
| O=C(CCSc1ccccc1)Nc1ccccc1C(=O)N1CCCCC1 [CBK269545] | 87.3 |
| CCN1CCN(Cc2nc3c(c(=O)n(C)c(=O)n3C)n2CCc2ccccc2)CC1 [CBK269547] | 110 |
| CCC(=O)Nc1ccc(C(=O)Nc2ccc(S(=O)(=O)N3CCCCC3)cc2)cc1 [CBK269549] | 84 |
| Cn1c(=O)[nH]c(=O)c2c1nc(N1CCCCC1)n2CCCSc1nc2ccccc2s1 [CBK269550] | 103 |
| Cc1nnc2sc(-c3ccncc3)nn12 [CBK269553] | 84.6 |

| SMILES | viability at 28.5 h, 10 µM [%] |
| --- | --- |
| COc1ccc(S(=O)(=O)NCc2ccccn2)cc1NC(C)=O [CBK269554] | 103 |
| Cc1cc(C(F)(F)F)nc(NCc2ccco2)n1 [CBK269555] | 105 |
| CN(Cc1ccccc1)c1nc2c(c(=O)n(C)c(=O)n2C)n1CCSc1ncccn1 [CBK269564] | 97.7 |
| COc1ccc(NS(=O)(=O)c2ccc(OCC(=O)N3CCN(C)CC3)cc2)cc1Cl [CBK269565] | 85.8 |
| Cc1ccc2nsnc2c1NC(=O)CN1CCC(C)CC1 [CBK269568] | 86.2 |
| O=S(=O)(NCc1ccccc1)N1CCCCCC1 [CBK269569] | 101 |
| O=C(O)C(Nc1nc(C(F)(F)F)nc2ccccc12)c1ccccc1 (centres unmarked) [CBK269570] | 106 |
| Cc1cccc(C(=O)NCCCNC(=O)c2ccncc2)c1 [CBK269572] | 92.8 |
| C=CCn1c(SCCC(=O)O)nc2c1c(=O)n(C)c(=O)n2C [CBK269573] | 79.3 |
| c1ccc(-c2nc3ccccc3nc2N2CCNCC2)cc1 [CBK269574C] | 85 |
| Cc1ccc(-c2cc3ccccn3c2C(=O)CSc2nncn2C)cc1 [CBK269580] | 83.5 |
| NC(=O)COc1ccc(CNc2ccc(Oc3ccccc3)cc2)cc1Cl [CBK269584] | 89.4 |
| CCOc1ccc(Oc2nc(N(C)C)nc(N3CCOCC3)n2)nn1 [CBK269585] | 104 |
| O=C(CN1CCN(S(=O)(=O)N2CCCCCC2)CC1)Nc1cc(Cl)ccc1Cl [CBK269587] | 90.1 |
| Cc1ccc(S(=O)(=O)Cc2ccc(C(=O)N3CCN(Cc4ccccc4)CC3)cc2)cc1 [CBK269588] | 86.1 |
| CCOc1ccc(CNCc2ccc(C(=O)O)cc2)cc1OC [CBK269590C] | 87.3 |
| O=C(CNC(=O)c1ccc(Br)cc1)NC1CCCC1 [CBK269591] | 90.3 |
| Cn1c(=O)[nH]c(=O)c2[nH]c(CN3CCN(Cc4ccccc4)CC3)nc21 [CBK269592] | 98.5 |
| COc1ccc(C(=O)N(Cc2ccco2)Cc2cc3ccccc3nc2O)cc1 [CBK269594] | 95.9 |
| CCOC(=O)CC(=O)COc1noc2nc(C)cc(C)c12 [CBK269595] | 98.2 |
| Cc1ccc(S(=O)(=O)Cc2cccc(C(=O)N3CCN(Cc4ccccc4)CC3)c2)cc1 [CBK269596] | 93 |
| O=C(CSc1nnc(-c2ccncc2)s1)NNC(=O)c1cccs1 [CBK269600] | 82.3 |

| SMILES | viability at 28.5 h, 10 µM [%] |
| --- | --- |
| COc1ccc(CCNC(=O)C2CCCN(S(=O)(=O)c3ccc4ccccc4c3)C2)cc1 (centres unmarked) [CBK269601] | 101 |
| O=C(c1cccs1)N(Cc1ccco1)Cc1cc2ccccc2[nH]c1=O [CBK269602] | 104 |
| COc1ccc(Cl)cc1S(=O)(=O)N1CCC(C(=O)O)CC1 [CBK269607] | 79.1 |
| Cc1cccc(OC(C)C(=O)Nc2ccc(S(=O)(=O)N3CCOCC3)cc2)c1 (centres unmarked) [CBK269609] | 106 |
| CC(=O)NCCc1nc2ccccc2n1CCOc1ccc(Cl)cc1 [CBK269610] | 107 |
| c1ccc(Cn2c(CN3CCCC3)nc3ccccc32)cc1 [CBK269612] | 87.7 |
| O=C(NCCNC(=O)c1ccccn1)c1cccc(F)c1 [CBK269613] | 78.3 |
| O=C(CSc1nnc(COc2cccc3cccnc23)n1-c1ccccc1)N1CCCC1 [CBK269614] | 79.1 |
| O=C(CSCCO)Nc1ccc(N2CCOCC2)cc1 [CBK269616] | 89.7 |
| O=S(=O)(NC1CCCCC1)c1ccc(S(=O)(=O)N2CCOCC2)cc1 [CBK269618] | 102 |
| C=CCn1c(SCC(=O)Nc2cccc(F)c2)nnc1-c1ccccc1O [CBK269620] | 83 |
| O=C(O)c1ccc(CNCc2ccc(-c3ccc(F)cc3)o2)cc1 [CBK269622C] | 90.9 |
| Cc1onc(-c2ccccc2Cl)c1C(=O)Nc1ccc(CC(=O)O)cc1 [CBK269623] | 89.2 |
| CC(=O)c1ccccc1OCCOCCN1CCCC(C)C1 (centres unmarked) [CBK269625C] | 106 |
| COc1cccc(NC(=O)CSc2nnc(CC(C)C)n2C)c1 [CBK269626] | 103 |
| Cn1c(CN2CCOCC2)nnc1SCC(=O)Nc1cccc(F)c1 [CBK269629] | 80.2 |
| O=C(CC1(O)C(=O)N(Cc2ccc3c(c2)OCO3)c2ccccc21)c1cccnc1 (centres unmarked) [CBK269633] | 103 |
| O=C(Nc1ccc(Cc2ccncc2)cc1)c1sc2c([N+](=O)[O-])cccc2c1Cl [CBK269635] | 97.1 |
| Cc1cc(OC(C)C(=O)Nc2ncccc2C)ccc1Cl (centres unmarked) [CBK269637] | 78.4 |
| COc1ccc(CSc2nnc(-c3ccncc3)n2C)cc1[N+](=O)[O-] [CBK269638] | 87.7 |
| O=C(CC1(O)C(=O)N(CN2CCOCC2)c2ccccc21)c1ccc2c(c1)OCO2 (centres unmarked) [CBK269639] | 99.3 |
| O=C(CCc1c[nH]c2ccccc12)OCc1nnc(-c2ccccc2)o1 [CBK269642] | 101 |

| SMILES | viability at 28.5 h, 10 µM [%] |
| --- | --- |
| O=C(NCCNc1ccc(Cl)cc1[N+](=O)[O-])c1c(F)cccc1F [CBK269643] | 97.6 |
| CC(NC(=O)c1ccccc1)c1nnc(SCC(=O)c2ccccc2)n1C (centres unmarked) [CBK269644] | 82.3 |
| O=C(c1cccc(S(=O)(=O)Nc2ccccn2)c1)N1CCCc2ccccc21 [CBK269645] | 84.9 |
| C=CCOc1ccc(OCCN2CC(C)OC(C)C2)cc1 (centres unmarked) [CBK269646C] | 112 |
| O=C(Nc1ccc2c(c1)OCO2)C1CCN(S(=O)(=O)c2ccc(Oc3ccccc3)cc2)CC1 [CBK269648] | 85.1 |
| Cc1cccc(C(=O)Nc2cc(NC(=O)c3cccc(C)c3)cc(C(=O)O)c2)c1 [CBK269649] | 98 |
| Cc1ccc(OCCCN2CCN(C)CC2)c(Cc2ccccc2)c1 [CBK269650C] | 104 |
| Cc1c(NCc2ccccn2)cccc1C(=O)O [CBK269651] | 86.9 |
| Cc1cc(I)ccc1OCCCCN1CCN(C)CC1 [CBK269652C] | 91.3 |
| O=C(Nc1cccc(CCc2ccccn2)c1)c1ccc([N+](=O)[O-])cc1 [CBK269653] | 86.9 |
| Cn1c(SCC(=O)Nc2ccc(Oc3ccc(Cl)cc3)cc2)nnc1-c1ccncc1 [CBK269654] | 95.6 |
| O=C(Oc1ccccc1)c1cc(S(=O)(=O)N2CCOCC2)c(Cl)cc1Cl [CBK269656] | 83.5 |
| O=C(NCc1cccs1)c1cc(S(=O)(=O)N2CCOCC2)c(Cl)cc1Cl [CBK269657] | 97.3 |
| Cc1nnc(SCC(=O)NCc2c(C)c(Cl)cc(C(C)C)c2O)s1 [CBK269662] | 86.1 |
| COc1ccc(C(=O)Nc2ccccc2O)cc1S(=O)(=O)N1CCCCC1 [CBK269665] | 92.6 |
| O=C(COc1ccc(CCO)cc1)Nc1ccccc1-c1ccccc1 [CBK269666] | 80.9 |
| O=C(CN1C(=O)COc2ccc(Cl)cc21)Nc1cccc(C(=O)O)c1 [CBK269667] | 93.1 |
| O=C(CSc1ccc(Cl)cc1)N1CCN(c2ccc([N+](=O)[O-])c(N3CCOCC3)c2)CC1 [CBK269670] | 85.3 |
| C=CCc1cc(C)cc(C)c1OCCN1CCN(C)CC1 [CBK269672C] | 101 |
| Cc1ccc(-n2c(SCC(N)=O)nnc2-c2ccccc2O)c(C)c1 [CBK269673] | 89.6 |
| O=C(NCc1cccnc1)c1ccc2c(c1)C(=O)N(Cc1ccco1)C2=O [CBK269675] | 88.6 |
| CCOc1ccc(NC(=O)C(C)O)c(NC(=O)c2ccccc2Cl)c1 (centres unmarked) [CBK269678] | 92.7 |

same assay, conditions: human, hela cells, % viability, bulk resorufin, single well

| SMILES | viability at 28.5 h, 10 µM [%] |
| --- | --- |
| CN1C(=O)N(C)C(=O)C(Cc2ccccn2)(Cc2ccccn2)C1=O [CBK269577] | 97.5 |
